From US9834773B2, “Methods and means for metabolic engineering and improved product formation by micro-organisms” (Universiteit Leiden, priority 2006, dated 2017)

Target: DasR (Streptomyces coelicolor, UniProt Q9K492)
Experiment: EMSA binding interference experiment: ability of compounds to interfere with binding of DasR to the nagB and crr promoters
Settings: for effect on formation of the complex of DasR with the nagB promoter (EMSA): 10 nM fluorescent probe, 3 μM purified DasR, 500-fold excess of non-specific DNA, 50, 100, 150, and 200 mM compound; for effect on formation of the complex of DasR with the crr promoter region (EMSA): data not shown
Method: FIG. 12. […] EMSAs were performed with 10 nM fluorescent probe, 3 μM purified DasR, and 500-fold excess of non-specific DNA.
EMSAs were performed with fluorescent probes (10 nM) with an ALF express sequencer (Filee et al., 2001). Purified DasR (3 μM) and 1000-fold excess of non-specific DNA were used in the reaction mixture. Predicted cis-acting elements were taken from the promoter regions of actII-ORF4 (SCO5085; 5′-[…]-3′ (SEQ ID NO:530)), and redZ (SCO5881; 5′-[…]-3′ (SEQ ID NO:531)). Known cis-acting elements upstream of crr (SCO1390; […]-3′ (SEQ ID NO:532)), and crp (SCO3571; 5′-[…]-3′ (SEQ ID NO:533)) were used as positive and negative controls, respectively. The 16 nt dre sites are underlined.
A pivotal question is what is the effector molecule that modulates DasR? As shown in here, many of the targets for DasR relate to the generation (chitinolytic system), transport (PTS^GlcNAc), and metabolism (glycolysis via fructose 6-P) of N-acetylglucosamine. We therefore looked for the inducer among the intermediate molecules that gravitate around aminosugar metabolism. A binding interference experiment was set up where the ability of compounds to interfere with binding of dasR to the nagB and crr promoters was tested. […] The finding that glucosamine-6-P serves as an effector of DasR is explained by its central position at the metabolic crossroads between (GlcNAc)n extracellular degradation, N-acetylglucosamine transport and intracellular metabolism, lipid and nitrogen metabolism, glycolysis, and peptidoglycan synthesis (FIG. 13).

DasR, sequence (Q9K492 whole entry): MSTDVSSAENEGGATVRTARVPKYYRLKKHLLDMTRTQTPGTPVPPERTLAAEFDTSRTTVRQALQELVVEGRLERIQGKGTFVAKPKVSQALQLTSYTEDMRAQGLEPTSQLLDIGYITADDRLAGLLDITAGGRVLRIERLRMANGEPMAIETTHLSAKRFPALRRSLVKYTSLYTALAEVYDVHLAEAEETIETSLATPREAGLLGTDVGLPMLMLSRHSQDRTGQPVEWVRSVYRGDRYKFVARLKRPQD

With N[C@H]1C(O)O[C@H](COP(=O)(O)O)[C@@H](O)[C@@H]1O (stereo partly shown) [glucosamine-6-P, glucosamine-6-phosphate] the “effect on formation of the complex of DasR with the nagB promoter (EMSA)” value (“effect … with the nagB promoter (EMSA)” for short) was “prevented the formation of a complex”, the “effect … with the nagB promoter (EMSA)” value (listed as GlcN-6-P) was “release of DasR from the dre site” and the “effect on formation of the complex of DasR with the crr promoter region (EMSA)” value (shortened to “effect … with the crr promoter region (EMSA)”) was “prevented the formation of a complex”.

With CC(=O)N[C@H]1C(O)O[C@H](COP(=O)(O)O)[C@@H](O)[C@@H]1O (stereo partly shown) [N-acetylglucosamine-6-P] the “effect … with the nagB promoter (EMSA)” value was “it was the only of the compounds tested that prevented the formation of a complex” and the “effect … with the crr promoter region (EMSA)” value was “it was the only of the compounds tested that prevented the formation of a complex”.

In the case of CC(=O)SCCNC(=O)CCNC(=O)[C@H](O)C(C)(C)COP(=O)(O)OP(=O)(O)OC[C@H]1O[C@@H](n2cnc3c(N)ncnc32)[C@H](O)[C@@H]1OP(=O)(O)O [acetyl-CoA], the “effect … with the nagB promoter (EMSA)” value is reported as “it was the only of the compounds tested that prevented the formation of a complex” and the “effect … with the crr promoter region (EMSA)” value is reported as “it was the only of the compounds tested that prevented the formation of a complex”.

For N[C@@H](CCC(=O)O)C(=O)O [glutamate], the “effect … with the nagB promoter (EMSA)” value was “it was the only of the compounds tested that prevented the formation of a complex” and the “effect … with the crr promoter region (EMSA)” value was “it was the only of the compounds tested that prevented the formation of a complex”.

For O=C(CO)[C@@H](O)[C@H](O)[C@H](O)COP(=O)(O)O [fructose 6-P], the “effect … with the nagB promoter (EMSA)” value was “it was the only of the compounds tested that prevented the formation of a complex” and the “effect … with the crr promoter region (EMSA)” value was “it was the only of the compounds tested that prevented the formation of a complex”.

NC(=O)CC[C@H](N)C(=O)O [glutamine] was tested, and the “effect … with the nagB promoter (EMSA)” value was “it was the only of the compounds tested that prevented the formation of a complex” and the “effect … with the crr promoter region (EMSA)” value was “it was the only of the compounds tested that prevented the formation of a complex”.
